Source: patent US11498853B2, “Water with switchable ionic strength” (QUEEN'S UNIVERSITY AT KINGSTON, priority 2010, dated 2022)
“And” between values parts separate entries of the source, which are not always exact repeats. Identical values can stand only once. Like-named read-outs stand apart in the source and are kept apart here.

Assays:
[1] = Miscibility of diamines and triamines with water in presence and absence of CO2; format: physicochemical; conditions: 5:1 w/w water and liquid additive; for Miscibility with water, After addition of CO2: CO2 90 min; for Miscibility with water, Before addition of CO2: room temperature
Experimental: A 5:1 w/w solution of water and the liquid additive (total volume 5 m) were mixed together in a glass vial at room temperature. Whether the mixture formed one or two liquid phases was visually observed. Then CO2 was bubbled through the mixture via a single narrow gauge steel needle at a flow rate of ˜5 ml min^−1 for 90 min. Whether the mixture formed one or two phases was visually observed.

[2] = Solvent switching of diamidine/water system, 1H NMR; format: physicochemical; conditions: 0.80 molal, 30 minutes CO2
Experimental: The diamidine was investigated as additive for switchable ionic strength solutions. […] The volumes of each phase were recorded.

[3] = Zeta potential of suspended clay fines in switchable water; format: physicochemical
Experimental: (§1) Clay fines were weighed and placed into individual vials (0.025 g, Ward's Natural Science Establishment). Kaolinite and montmorilonite were used as received, but as illite day was ground into a powder using a motar and pestle. Solutions containing additives were made with deionized water (18.2 MΩ/cm, Millipore) and 10 ml was added to the clay fines. A suspension was created using a vortex mixer and subsequently dispensed into a folded capillary cell. The zeta potential was measured using a Malvern Zetasizer instrument. The errors reported on the zeta potential values were the standard deviations of the zeta potential peaks measured.
(§2) Unless specified, all carbon dioxide treatments were conducted with the aqueous solutions prior to addition to day fines. For applicable measurements, ultra pure carbon dioxide (Supercritical CO2 Chromatographic Grade, Paxair) was bubbled through the solutions using a syringe.

[4] = Separation of THF from aqueous phase and retention of additive on switching with CO2, by 1H NMR; format: physicochemical
Experimental: (§3) The volumes of each phase were recorded.
The graduated cylinders were capped with rubber septa. […] A second narrow gauge steel tube was provided to vent the gaseous phase.
as §3

[5] = Reversible protonation of amine additives in H2O monitored by conductivity; format: physicochemical
Experimental: 1:1 w/w H2O and THEED was used because a 1:1 v/v solution was too viscous to pour accurately. A trigger gas chosen from CO2, air or nitrogen was bubbled at identical flow rates through the solution via a narrow gauge steel tube and the conductivity of the solution was measured periodically using a Jenway 470 Conductivity Meter (Bibby Scientific, NJ, US) having a cell constant of 1.02 cm^−1.
The deprotonation reactions of the ionic solutions of additives in water were monitored in a similar manner, and the conductivity plot is shown in FIG. 8.
1:1 v/v solutions of the various additives and distilled, deionised water were prepared in six dram glass vials and transferred to a fritted glass apparatus which acted as a reaction vessel. The fritted glass apparatus consisted of a long narrow glass tube leading to a fine glass frit having a diameter of approximately 4 cm. The other end of the glass frit was connected to a cylindrical glass tube which held the solution of the additive during contacting with the trigger gas. This apparatus allowed a multiple source of trigger gas bubbles to contact the solution, compared to the single point source of Example 5.
A trigger gas chosen from CO2, air or nitrogen was bubbled through the solution via the glass frit at a flow rate of 110 ml min^−1 as measured by a J&W Scientific ADM 2000 Intelligent Flowmeter (CA, USA). For each conductivity measurement, the solution was transferred back to a six dram vial, cooled to 298 K and measured in triplicate. Conductivity measurements were performed using a Jenway 470 Conductivity Meter (Bibby Scientific, NJ, US) having a cell constant of 1.02 cm^−1.

[6] = Zeta potential of suspended clay fines in switchable water; format: physicochemical; conditions: Kaolinite
Experimental: as §1, §2
Another experiment was performed in which CO2 was bubbled through a 1 mM aqueous solution of TMDAB that already contained clay fines (a method referred to as “switching in situ”).

[7] = Degree of protonation/deprotonation of amine additives in D2O by 1H NMR; conditions: 0.1 M in D2O; for degree of protonation by CO2: room temperature
Experimental: In order to establish the chemical shifts of the protonated bases, molar equivalents of several strong acids, including HCl and HNO3, were added to separate solutions of the amines dissolved in D2O. ^1H NMR spectra were acquired on a Bruker AV-400 NMR spectrometer at 400.3 MHz for three replicate solutions of each amine. An average value of each chemical shift for each protonated base was calculated along with standard deviations. […] The ^1H NMR chemical shifts of the unprotonated amines were also measured.
The amine was dissolved in D2O in an NMR tube and sealed with a rubber septa. The spectrum was then acquired. Subsequently, two narrow gauge steel needles were inserted and gas was gently bubbled through one of them into the solution at approximately 4-5 bubbles per second. The second needle served as a vent for the gaseous phase.
Firstly CO2 was bubbled through the solution for the required length of time and then the spectrum was re-acquired. This process was repeated. The % protonation of the amine was determined from the observed chemical shifts by determining the amount of movement of the peaks from the normal position for the unprotonated amine towards the position expected for the fully protonated amine.
Nitrogen gas was flushed through the solution at 75° C.
In order to establish the chemical shifts of the protonated bases, molar equivalents of several strong acids, including HCl and HNO3, were added to separate solutions of the tetraamine dissolved in D2O. ^1H NMR spectra were acquired on a Bruker AV-400 NMR spectrometer at 400.3 MHz for three replicate solutions of the amine. An average value of each chemical shift for each protonated base was calculated along with standard deviations. […] The ^1H NMR chemical shifts of the unprotonated amine were also measured. […]

[8] = 0.80 molal
Experimental: The methylated spermine was investigated as additive for switchable ionic strength solutions. To measure the extent of THF being forced out of an aqueous phase by an increase in ionic strength, and the amounts of amine, which remained in the aqueous phase, 1:1 w/w solutions of THF and water were prepared in graduated cylinders. The appropriate mass of amine additive to result in a 0.80 molal solution was added and the cylinders were capped with rubber septa. […] The volumes of each phase were recorded. Aliquots of the non-aqueous and aqueous layers were taken and dissolved in d3-acetonitrile in NMR tubes. A known amount of ethyl acetate was added to each NMR tube as an internal standard. ^1H NMR spectra were acquired and through integration of the ethyl acetate standard, a concentration of THF or additive was calculated and scaled up to reflect the total volume of the aqueous or non-aqueous phase giving a percentage of the compound being forced out or retained. Then argon was bubbled through the solution while heating to 50° C. until the two phases recombined (15 to 60 min). The whole switching process (30 min CO2, sample take, then another 30 min of Ar) was repeated.

[9] = Salting out THF from water using secondary amine additives, 1H NMR; format: physicochemical; conditions: 1.60 molal, 1:1 w/w THF:water, 30 minutes CO2
Experimental: N-tert-Butylethanolamine and N-ter-butymethylamine were investigated as additives for switchable ionic strength solutions. […] The volumes of each phase were recorded. […] The recombining of the phases when N-tert-butymethylamine was used as an additive was not successful at 30 min but was achieved by 2 h at a higher Ar flow rate of 15 mL/min. THF was added afterwards to replace the amount of THF being evaporated during the procedure.

[10] = Expulsion of THF from water and removal of additive from the aqueous phase; format: physicochemical; conditions: for additive removed from the aqueous phase after N2 treatment: separated aqueous phase, N2 90 minutes, 60° C.
Experimental: 1.50 g H2O, 1.50 g THF, and 0.30 g N,N,N′N′-tetraethyl-1,4-diaminobutane (TEDAB) were mixed together in a graduated cylinder to generate a single phase solution. […] A small stir bar was added to the solution and the cylinder was capped with a rubber septa. The following procedure was run in triplicate with a new sample (of the same contents shown above) each time.
A long, narrow gauge needle was inserted through the septa into the solution. […] CO2 was bubbled through the solution a flow rate of about 5 ml/min for 45 minutes with stirring until a 2nd phase creams out on top of the aqueous phase. The CO2 bubbling was stopped and the needles withdrawn. The cylinder was immersed in a hot water bath for several seconds to facilitate the separation of the liquid phases. Both phases were clear and yellow in colour.
The organic phase was decanted off giving a mass of 1.253 g (density=0.84 g/m).
A 39.1 mg sample of the organic phase was placed in an NMR tube with deuterated acetonitrile and 50.2 mg ethyl acetate to act as an internal standard. A 66.2 mg sample of the aqueous phase was placed in a 2nd NMR tube with deuterated acetonitrile with 22.3 mg ethyl acetate to act as an internal standard. A ^1H NMR spectra was acquired and knowing the corresponding amount of ethyl acetate in each sample the resulting amounts of THF in the aqueous sample and additive in the organic sample can be calculated. Knowing the mass, volume, and density of each layer, the total amount of THF or additive in a respective layer can be calculated.
1.943 g (1.90 ml) of the aqueous phase was returned to the same graduated cylinder. The needles and septa were put back into the cylinder and the cylinder was immersed in a 60° C., water bath. N2 was introduced in the same fashion as CO2 preformed previously and the N2 was bubbled through the solution for 90 minutes where a deep yellow organic phase creams out of the aqueous phase.
A 37.9 mg sample of the aqueous phase was taken up in an NMR tube with deuterated acetonitrile and 41.5 mg ethyl acetate to act as an internal standard.

[11] = 0.80 molal additive, 1:1 w/w THF:H2O, 30 min CO2, in aqueous phase
[12] = 1:1 v/v additive:water, 25° C., glass frit
[13] = 1:1 v/v, N2 at 80° C., glass frit

## CN(C)Cc1cc(CN(C)C)cc(CN(C)C)c1 [1,3,5-C6H3(CH2NMe2)3, N,N,N′,N′,N″,N″-1,3,5-benzenetrimethanamine]
[1]
  Miscibility with water, After addition of CO2: miscible
  Miscibility with water, Before addition of CO2: miscible

## CN(C)CC1CC(CN(C)C)CC(CN(C)C)C1 (stereo not drawn) [1,3,5-cycloC6H9(CH2NMe2)3, 1,1′,1″-(cyclohexane-1,3,5-triyl)tris(N,N,-dimethylmethanamine)]
[1]
  Miscibility with water, After addition of CO2: miscible
  Miscibility with water, Before addition of CO2: immiscible

## C/C(=N\CCCC/N=C(\C)N(C)C)N(C)C [DIAC, N,N-(butane-1,4-diyl)bis(N,N-dimethylacetimidamide)]
[2]
  additive retained in the aqueous phase: 99.5%

## CC(O)CN(CCCN(C)C)CCCN(C)C (stereo not drawn) [DMAPAP]
[3]; Illite, 0.8 molal additive
  Zeta Potential: −19.1 ± 3.92 mV
[3]; Illite, 0.8 molal additive + 1 h CO2
  Zeta Potential: −1.87 mV
[3]; Montmorillonite, 0.8 molal additive
  Zeta Potential: −16.8 ± 4.64 mV
[3]; Montmorillonite, 0.8 molal additive + 1 h CO2
  Zeta Potential: −2.99 mV
[4]; [11]
  % Additive Retained: 98.8 ± 0.4%
[4]; THF:H2O:Additive 3:3:1 w/w/w
  % Additive Retained: 87.1 ± 7.3%
[4]; THF:H2O:Additive 5:5:1 w/w/w
  % Additive Retained: 98.4 ± 0.4%
[4]; THF:H2O:Additive 10:10:1 w/w/w
  % Additive Retained: 96.0 ± 0.8%
[4]; THF:H2O:Additive 15:15:1 w/w/w
  % Additive Retained: 94.4 ± 1.1%
[5]; [12]
  conductivity on CO2 bubbling: lower conductivities than TMDAB
[6]; 0.8 molal additive
  Zeta Potential: −24.3 ± 2.29 mV
[6]; 0.8 molal additive + 1 h CO2
  Zeta Potential: −3.99 mV

## CN(C)CCN(C)CCN(C)CCN(C)C [HMTETA, 1,1,4,7,10,10-hexamethyl triethylenetetramine]
[4]; [11]
  % Additive Retained: 99.3 ± 0.4%
[4]; THF:H2O:Additive 3:3:1 w/w/w
  % Additive Retained: 95.6 ± 1.5%
[4]; THF:H2O:Additive 5:5:1 w/w/w
  % Additive Retained: 98.4 ± 1.2%
[4]; THF:H2O:Additive 10:10:1 w/w/w
  % Additive Retained: 98.0 ± 1.0%
[4]; THF:H2O:Additive 15:15:1 w/w/w
  % Additive Retained: 98.2 ± 0.3%
[5]; [12]
  conductivity on CO2 bubbling: lower conductivities than TMDAB
[5]; [13]
  conductivity of ionic form after 20 minutes of N2: close to zero

## CN(C)CCCN(C)CCCCN(C)CCCN(C)C [MeSpe, N^1,N^1′-(butane-1,4-diyl)bis(N^1,N^2,N^3-trimethylpropane-1,3-diamine)]
[7]
  degree of protonation by CO2: 93%
[8]; 30 min CO2, run 1
  Additive retained in THF: 99.85%
[8]; 30 min CO2, run 2
  Additive retained in THF: 99.79%

## CC(C)(C)NCCO [N-tert-butylethanolamine]
[9]
  Additive retained in H2O: 99.84 ± 0.04%

## CNC(C)(C)C [N-tert-butymethylamine]
[9]
  Additive retained in H2O: 99.75 ± 0.04%

## CCCN(CCC)CCCCN(CCC)CCC [Pr2NCH2CH2CH2CH2NPr2, N,N,N′,N′-tetrapropyl-1,4-diaminobutane]
[1]
  Miscibility with water, After addition of CO2: immiscible
  Miscibility with water, Before addition of CO2: immiscible

## CCCN(CC)CCCCN(CC)CCC [PrEtNCH2CH2CH2CH2NPrEt, N,N′-diethyl-N,N′-dipropyl-1,4-diaminobutane]
[10]
  additive removed from the aqueous phase after N2 treatment: 81%
[1]
  Miscibility with water, After addition of CO2: miscible
  Miscibility with water, Before addition of CO2: immiscible

## CCN(CC)CCCCN(CC)CC [TEDAB, N, N, N′, N′-tetraethyl-1,4-diaminobutane]
[10]; 1.50 g H2O, 1.50 g THF, 0.30 g additive, CO2 45 minutes
  additive residing in the aqueous phase after CO2 treatment: 91.1±3.7%
[10]
  additive removed from the aqueous phase after N2 treatment: 49.3±6.3%
[1]
  Miscibility with water, After addition of CO2: miscible
  Miscibility with water, Before addition of CO2: immiscible

## OCCN(CCO)CCN(CCO)CCO [THEED, N, N, N′, N′-tetrakis(2-hydroxyethyl) ethylenediamine]
[7]; N2 bubbling at 75° C., 2 hours (120 minutes)
  degree of deprotonation: 98%
[7]; by 10 minutes
  degree of protonation by CO2: 49%

## CN(C)CCCCN(C)C [TMDAB, N, N, N′, N′-tetramethyl-1,4-diaminobutane]
[4]; [11]
  % Additive Retained: 99.2 ± 0.4%
[4]; THF:H2O:Additive 3:3:1 w/w/w
  % Additive Retained: 87.1 ± 2.1%
[4]; THF:H2O:Additive 5:5:1 w/w/w
  % Additive Retained: 99.8% and 99.6 ± 0.1%
[4]; THF:H2O:Additive 10:10:1 w/w/w
  % Additive Retained: 99.4 ± 0.1%
[4]; THF:H2O:Additive 15:15:1 w/w/w
  % Additive Retained: 98.4 ± 0.4%
[5]; 1:1 v/v H2O:amine, 90 minutes, 80° C., N2 through a glass frit
  reduction of conductivity: approximately 95%
[5]; [12]
  rate of conductivity increase on CO2 bubbling: highest rate of conductivity increase
[5]; [13]
  rate of conductivity decrease on N2 flushing: highest
